Experimental findings from paper PMC12503906, “Novel Pyrazolo [1,5‐a]−1,3,5‐Triazine Derivatives as CDK7 Inhibitors: Synthesis and Biological Insights in Pancreatic Ductal Adenocarcinoma Models” (Chemmedchem, 2025) are described below.

What all share (format): cell-based
Assay [1] has as its system Bax/Bcl‐2. Put plainly: Bax/Bcl‐2 ratio by RT‐PCR, SUIT 2.28 cells. The procedure: (§1) In order to understand modulation of downstream genes of CDK7, gene expression analysis by qPCR was performed in all cell lines. Cells (5 × 10^5/well) were seeded in 6‐well plates and treated with the compounds 1b and 1g at 1× and 4 × IC50 concentrations. Cell lysates were collected 24 h post‐treatment using 300 µL of TRIzol Reagent (Ambion, 15,596,018) per well. Total RNA was extracted by mixing 60 µL of chloroform to the samples, incubating for 3 min and centrifuging at 12,000 rcf for 15 min at 4 °C. The upper aqueous phase containing RNA was transferred to a new Eppendorf and mixed with 120 µL of cold isopropanol in order to allow the RNA to precipitate. Samples were incubated at RT for 10 min and were then centrifuged at 12,000 rcf for 10 min at 4 °C. The isopropanol was carefully removed, and the pellet was washed twice with 70% ETOH. Pellets were left to air dry and consequently resuspended in RNAse‐free water. Samples were left agitation on a thermomixer at 55 °C for 10 min at 600 rpm and were then quantified through NanoDrop technology (Thermo Scientific, NanoDrop One/One^c). RNA samples were stored at −80 °C.
(§2) In order to perform cDNA synthesis, the First Strand cDNA synthesis kit (Thermo Scientific, K1612) was used. The previously isolated RNA was mixed with 1 µL of oligo dT18 primer into a pcr tube. Nuclease free water was added to reach a final volume of 11 µL. Samples were centrifuged at 1200 rcf for 5 min and were then placed on a thermomixer at 65 °C for a few minutes. A master mix was prepared, including 4 µL of 5× reaction buffer, 1 µL of ribolock RNAse inhibitor, 2 µL of dntp mix (10 mM), and 2 µL of M‐mulv reverse transcriptase for each sample. In total 9 µL of master mix were added to each vial. Samples were centrifuged again and were finally synthesized, following a cycle of 60 min at 37 °C and 5 min at 70 °C. cDNA was now finally synthesized and could be stored at −20 °C. RT‐PCRs reactions were performed using SYBR Green (Bio‐Rad, 1,725,271) (5 µL per sample), primer mix (0.3 µM) (2 µL per sample), and cDNA (10 ng µL^− ^1) (3 µL per sample). […] RT‐PCR assays were carried out in a GeneAmp 5700 Sequence Detection System programmed to hold at 50 °C for 30 min, to hold at 95 °C for 10 min, and to complete 45 cycles of 95 °C for […] and 50 °C for 1 min. The genes that were investigated are shown in Table 5 , with their respective forward and reverse primer sequences.

Assay [2] concerns Bax/Bcl‐2. The assay can be described thus: Bax/Bcl‐2 ratio by RT‐PCR, PATU‐T cells. The procedure:
as §1, §2

For another assay, the system named is PDAC3. Put plainly: Annexin V apoptosis assay, PDAC3. As to conditions: 1 × IC50. As to the method:
(§3) In order to investigate the apoptotic properties of the compounds 1b and 1g, the Annexin V apoptosis assay was performed. Annexins are calcium‐dependent phospholipid binding proteins, which are able to bind to phosphatidylserine (PS). The externalization of PS residues on the outer membrane of apoptotic cells can be detected by Annexin V.
(§4) For this assay, cells were seeded in a 96‐well plate at a concentration of 13.5 × 10^3 and 4.5 × 10^3 /well respectively for the 24 and 72 h experiments. The next day cells were treated with compounds 1b and 1g at 1 × IC50 and 4 × IC50 concentrations. The apoptosis assay was performed 24 and 72 h post‐treatment following the BD Pharmingen FITC Annexin V Apoptosis Detection Kit I (BD Biosciences, 556,547). The supernatant was aspirated, and cells were washed with phosphate‐buffered saline (PBS). Cells were consequently treated with binding buffer BBA + Annexin V (1:100) and were incubated in the dark at RT for 10 min. The supernatant was removed, and the cells were washed with BBA (1:10). Cells were then incubated with BBA + PI (1:100) and were immediately read with the spectrophotometer at ex. 485/ em. 535. Two different programs were used to read the Annexin V and the PI absorbance. Lastly, 100 µL of PBS were added to each well before being fixed with TCA. This was followed by the SRB assay to standardize fluorescence data according to cell count. Data were exported into GraphPad Prism 10 for statistical analysis.

Another assay relates to SUIT 2.28. The assay can be described thus: Annexin V apoptosis assay, SUIT 2.28. The settings on record: 1× and 4 × IC50. As to the method:
as §3, §4

Regarding `Cn1cc(-c2cc3ncnc(N)n3n2)c2cc(Br)ccc21` [Compound 1g, 7‐(5‐Bromo‐1‐methyl‐1H‐indol‐3‐yl)pyrazolo[1,5‐a][1,3,5]triazin‐4‐amine], the “Bax/Bcl‐2 ratio SUIT 2.28” value in the assay on Bax/Bcl‐2 [1] (1 × IC50, 24 h after treatment) amounted to 1.21; in the assay with Bax/Bcl‐2 [1] (4 × IC50, 24 h after treatment), 2.06. The “Bax/Bcl‐2 ratio PATU‐T” value in the assay on Bax/Bcl‐2 [2] (1 × IC50, 24 h after treatment) worked out at 2.82; in the assay on Bax/Bcl‐2 [2] (4 × IC50, 24 h after treatment), 3.74. Besides, the apoptotic index result with PDAC3 (PDAC3, 24 h) is “significant increase in apoptotic index”; in the assay with PDAC3 (PDAC3, 72 h), “continued to show a significant rise”; with SUIT 2.28 (SUIT 2.28, 24 h), “below 1.5”; in the assay on SUIT 2.28 (SUIT 2.28, 72 h) it was “higher apoptotic index”.

Take `Nc1ncnc2cc(-c3c[nH]c4ccc(Br)cc34)nn12` [Compound 1b, 7‐(5‐Bromo‐1H‐indol‐3‐yl)pyrazolo[1,5‐a][1,3,5]triazin‐4‐amine]: the “Bax/Bcl‐2 ratio SUIT 2.28” value was 1.07 with Bax/Bcl‐2 [1] (1 × IC50, 24 h after treatment) and 1.45 in the assay with Bax/Bcl‐2 [1] (4 × IC50, 24 h after treatment). Besides, the “Bax/Bcl‐2 ratio PATU‐T” value with Bax/Bcl‐2 [2] (1 × IC50, 24 h after treatment) was determined as 4.43; in the assay with Bax/Bcl‐2 [2] (4 × IC50, 24 h after treatment), 4.03. Also, the apoptotic index entry is “significant increase in apoptotic index” with PDAC3 (PDAC3, 24 h); “continued to show a significant rise” with PDAC3 (PDAC3, 72 h); “below 1.5” with SUIT 2.28 (SUIT 2.28, 24 h); “higher apoptotic index” with SUIT 2.28 (SUIT 2.28, 72 h).
